From patent US11311543B2, “Compositions and methods for inhibiting PTPN22” (YALE UNIVERSITY, priority 2016, dated 2022)

Legend:
[1] = tested on: B cells isolated from humanized mice; assay: Calcium flux after BCR triggering in B cells isolated from humanized mice (flow cytometry); assay type: in vivo, humanized NSG mouse; details: anti-IgM F(ab′)2 25 μg/mL
Procedure: FIG. 40A depicts the phosphorylation of SHIP1, Lyn and ERK1/2 in total cell lysates of Ramos B cells treated or not with the PTPN22 inhibitor LTV-1 (5 μg/mL) for the indicated times. The cells were subjected to immunoblot analysis of P-LYN P-SHIP1, P-ERK1/2, and β-ACTIN. FIG. 40B depicts flow cytometry analysis of calcium flux of Ramos B cells treated or not with the PTPN22 inhibitor LTV-1 (5 μg/mL) for the indicated times followed by stimulation with anti-IgM F(ab′)2 at the indicated concentrations. FIG. 40C depicts flow cytometry analysis of calcium flux of splenocyte cells treated or not with LTV-1 (0.75 mg) twice daily for 7 days and stimulated with anti-IgM F(ab′)2 (25 μg/mL). FIG. 40D depicts flow cytometry analysis of calcium flux of splenocyte expressing PTPN22 shRNA and stimulated with anti-IgM F(ab′)2 (25 μg/mL).
However, downstream ERK phosphorylation was not affected by PTPN22 inhibition (FIG. 40A). Since PTPN22 inhibition enhanced TCR signaling in Jurkat cell line, it was investigated if PTPN22 blockade may also increase BCR signaling and calcium flux induced by BCR triggering was measured in RAMOS cells in the presence or not of LTV-1. Calcium flux was increased by PTPN22 inhibition, especially at lower concentration of BCR triggering agent (FIG. 40B). […]

[2] = tested on: new emigrant/transitional B cells; assay: Frequencies of autoreactive new emigrant/transitional B cells (central B cell tolerance) in humanized NSG mice engrafted with PTPN22 C/T or T/T HSCs; assay type: in vivo, NSG mice engrafted with human HSCs
Procedure: FIG. 7, comprising FIG. 7A through FIG. 7C depicts results of experiments showing inhibition of PTPN22 enzymatic activity resets central B cell tolerance. FIG. 7A depicts a schematic diagram depicting the PTPN22 inhibitor treatment strategy. NSG mice generated with CD34+ HSCs carrying PTPN22 T allele(s) were injected twice daily with 0.75 mg or 0.15 mg of PTPN22 inhibitor for one week. FIG. 7B depicts the frequencies of polyreactive new emigrant B cells from NSG mice carrying PTPN22 T allele(s) and treated with the PTPN22 inhibitor were determined and compared to those of non-treated NSG mice. […] For each B-cell fraction, the frequency of reactive (filled area) and non-reactive (open area) clones is summarized in pie charts with the total number of clones tested indicated in the center. In summarized reactivity panels on the right, each dot represents an untreated mouse and full and half-filled diamonds mice treated with either 0.75 or 0.15 mg of LTV-1 PTPN22 inhibitor, respectively. Averages are shown with a bar. FIG. 7C depicts the frequencies of HEp-2 reactive new emigrant B cells from NSG mice carrying PTPN22 T allele(s) and treated with the PTPN22 inhibitor were determined and compared to those of non-treated NSG mice. […] For each B-cell fraction, the frequency of reactive (filled area) and non-reactive (open area) clones is summarized in pie charts with the total number of clones tested indicated in the center. In summarized reactivity panels on the right, each dot represents an untreated mouse and full and half-filled diamonds mice treated with either 0.75 or 0.15 mg of LTV-1 PTPN22 inhibitor, respectively. Averages are shown with a bar.
Human CD34^+ cells were purified from fetal liver samples by density gradient centrifugation followed by positive immunomagnetic selection with anti-human CD34 microbeads (Miltenyi). Newborn NSG mice (within first 3 days of life) were sublethally irradiated (X-ray irradiation with X-RAD 320 irradiator at 180 cGy) and 100,000-150,000 CD34^+ cells in 20 μL of PBS were injected into the liver with a 22-gauge needle (Hamilton Company). Mice were used for experiments 10-12 weeks after transplantation. NSG mice treated with the PTPN22 inhibitor were injected twice daily i.p. with 0.75 mg or 0.15 mg of PTPN22 inhibitor for a week.
The pTRIP-Ubi-GFP lentiviral vector has been used for overexpression of PTPN22 variants and short hairpin RNA (shRNA) delivery. Vector constructions have been described previously (Cantaert et al., 2015, Immunity 43:884-95; Ruer-Laventie et al., 2015, Immun Inflamm Dis 3:265-79). The following sequence are used for human PTPN22 targeting: shRNA1 5′-[…]-3′ (SEQ ID NO: 1), shRNA2 5′-CTGTTGCCAACATCCTCTA-3′(SEQ ID NO: 3), or shRNA3 5′-AAGAATCCACCTGACTTCC-3′(SEQ ID NO: 2). Lentiviral particles were produced by transient transfection of 293T cells, as previously described (Schickel et al., 2012, EMBO Mol Med 4:1261-75). Viruses were then used to transduce CD34^+ HSCs in the presence of protamine sulfate (Sigma).
B cells were enriched from splenocytes using magnetic separation with CD19 microbeads (Miltenyi Biotech) and stained with CD19-Pacific Blue, CD10-PE-Cy7, CD21-APC and IgM-biotin (all from Biolegend) prior to purification. Single CD19^+CD10^+CD21^lowGFP^− or GFP^+ new emigrant B cells were sorted on a FACSAria (BD Biosciences) into 96-well PCR plates and immediately frozen on dry ice. […]

[3] = GFP+ shRNA+ PTPN22 C/T or T/T new emigrant/transitional B cells vs GFP- counterparts

| Molecule | calcium flux in B cells isolated from treated humanized mice ([1]; LTV-1 0.75 mg twice daily for 7 days, vs non-treated) | frequencies of HEp-2 reactive new emigrant/transitional B cells ([2]; PTPN22 C/T or T/T engrafted NSG mice, 0.75 mg LTV-1 i.p. twice daily for a week) | frequencies of polyreactive new emigrant/transitional B cells ([2]; PTPN22 C/T or T/T engrafted NSG mice, 0.75 mg LTV-1 i.p. twice daily for a week, vs non-treated) | anti-nuclear clone frequencies ([2]; PTPN22 C/T or T/T engrafted NSG mice, LTV-1 twice daily for a week) | calcium flux after BCR triggering in GFP+ shRNA-expressing B cells ([1]; GFP+ vs GFP- B cells from humanized NSG mouse) | production of HEp-2 reactive clones [2, 3] | production of polyreactive clones [2, 3] |
| --- | --- | --- | --- | --- | --- | --- | --- |
| Cc1ccccc1N1C(=O)/C(=C/c2ccc(OCc3cccc(C(=O)O)c3)cc2)C(=O)NC1=S [LTV-1] | enhanced | normalized | significantly reduced | remained very low |  |  |  |
| shRNA #1: shRNA targeting human PTPN22, 5′-CTAGTGCTCTTGGTGTATATT-3′, delivered by GFP-tagged lentivirus |  |  |  |  | increased calcium flux | significantly reduced | significantly reduced |
